What was measured:
[1] = biological target: glucosylceramide synthase (GCS) (Homo sapiens (Human), UniProt Q16739); test: Evaluation of inhibitory activities against GCS (enzyme reaction with A549 cell lysate, NBD C6-ceramide, HPLC fluorescence); type: biochemical; details: GCS activity in A549 cell lysate, 37° C. for 90 minutes
How it was run: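 Lysate of A549 cells in 50 mM HEPES pH 7.3 incubated with test compound and NBD C6-ceramide at 37 °C for 90 min; lipids extracted with chloroform/methanol and GlcCer and ceramide peaks quantified by HPLC fluorescence. Activity from GlcCer area fraction, normalised between DMSO and ibiglustat controls.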

GM1 production = test: cells; type: cell-based; details: Homo sapiens, Jurkat, 72 h

glucosylceramide synthase (GCS), sequence (Q16739 whole entry, looked up): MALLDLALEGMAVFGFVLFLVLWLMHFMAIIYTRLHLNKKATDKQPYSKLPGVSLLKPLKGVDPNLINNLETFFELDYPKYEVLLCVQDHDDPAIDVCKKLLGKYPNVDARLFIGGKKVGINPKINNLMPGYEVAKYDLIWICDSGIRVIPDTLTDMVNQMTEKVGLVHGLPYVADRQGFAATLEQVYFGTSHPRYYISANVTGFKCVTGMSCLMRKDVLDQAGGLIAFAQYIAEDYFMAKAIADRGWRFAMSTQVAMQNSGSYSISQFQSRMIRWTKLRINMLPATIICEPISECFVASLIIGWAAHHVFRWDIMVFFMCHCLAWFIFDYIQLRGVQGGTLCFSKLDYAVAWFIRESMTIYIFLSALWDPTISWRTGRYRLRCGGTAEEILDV

`O=C(NC1c2cc(-c3cccc(C(F)(F)F)c3)ccc2CCC12CC2)O[C@@H]1CN2CCC1CC2` (stereo partly drawn) [Example 177, (S)-quinuclidin-3-yl (7′-(3-(trifluoromethyl)phenyl)-3′,4′-dihydro-1′H-spiro[cyclopropane-1,2′-naphthalen]-1′-yl)carbamate] gave an IC50 [1] of 0.0235 µM and an IC50 (GM1 production) of 0.17 µM.

Work on `O=C(NC1c2cc(-c3cccc(OC(F)(F)F)c3)ccc2CCC12CC2)O[C@@H]1CN2CCC1CC2` (stereo partly drawn) [Example 178, (S)-quinuclidin-3-yl (7′-(3-(trifluoromethoxy)phenyl)-3′,4′-dihydro-1′H-spiro[cyclopropane-1,2′-naphthalen]-1′-yl)carbamate] yielded an IC50 [1] of 0.0227 µM and an IC50 (GM1 production) of 0.274 µM.

`O=C(NC1c2cc(-c3ccccc3F)ccc2CCC12CC2)O[C@@H]1CN2CCC1CC2` (stereo partly drawn) [Example 179, (S)-quinuclidin-3-yl (7′-(2-fluorophenyl)-3′,4′-dihydro-1′H-spiro[cyclopropane-1,2′-naphthalen]-1′-yl)carbamate] was tested, and the IC50 [1] was 0.01 µM and the IC50 (GM1 production) was 0.115 µM.

`O=C(NC1c2cc(-c3ccccc3Cl)ccc2CCC12CC2)O[C@@H]1CN2CCC1CC2` (stereo partly drawn) [Example 180, (S)-quinuclidin-3-yl (7′-(2-chlorophenyl)-3′,4′-dihydro-1′H-spiro[cyclopropane-1,2′-naphthalen]-1′-yl)carbamate] was tested, and the IC50 [1] was 0.00954 µM and the IC50 (GM1 production) was 0.0991 µM.

`O=C(NC1c2cc(-c3ccccc3C(F)(F)F)ccc2CCC12CC2)O[C@@H]1CN2CCC1CC2` (stereo partly drawn) [Example 181, (S)-quinuclidin-3-yl (7′-(2-(trifluoromethyl)phenyl)-3′,4′-dihydro-1′H-spiro[cyclopropane-1,2′-naphthalen]-1′-yl)carbamate] was tested, and the IC50 [1] was 0.0127 µM and the IC50 (GM1 production) was 0.0917 µM.

With `O=C(NC1c2cc(-c3ccccc3OC(F)(F)F)ccc2CCC12CC2)O[C@@H]1CN2CCC1CC2` (stereo partly drawn) [Example 182, (S)-quinuclidin-3-yl (7′-(2-(trifluoromethoxy)phenyl)-3′,4′-dihydro-1′H-spiro[cyclopropane-1,2′-naphthalen]-1′-yl)carbamate] the IC50 [1] was 0.0119 µM and the IC50 (GM1 production) was 0.0404 µM.

With `Cc1ccc(-c2ccc3c(c2)C(NC(=O)O[C@@H]2CN4CCC2CC4)C2(CC3)CC2)cc1` (stereo partly drawn) [Example 183, (S)-quinuclidin-3-yl (7′-(p-tolyl)-3′,4′-dihydro-1′H-spiro[cyclopropane-1,2′-naphthalen]-1′-yl)carbamate] the IC50 [1] was 0.0129 µM and the IC50 (GM1 production) was 0.145 µM.

With `O=C(NC1c2cc(-c3ccc(OC(F)F)cc3)ccc2CCC12CC2)O[C@@H]1CN2CCC1CC2` (stereo partly drawn) [Example 184, (S)-quinuclidin-3-yl (7′-(4-(difluoromethoxy)phenyl)-3′,4′-dihydro-1′H-spiro[cyclopropane-1,2′-naphthalen]-1′-yl)carbamate] the IC50 [1] was 0.00752 µM and the IC50 (GM1 production) was 0.0869 µM.

`COCOc1ccc(-c2ccc3c(c2)C(NC(=O)O[C@@H]2CN4CCC2CC4)C2(CC3)CC2)cc1` (stereo partly drawn) [Example 185, (S)-quinuclidin-3-yl (7′-(4-(methoxymethoxy)phenyl)-3′,4′-dihydro-1′H-spiro[cyclopropane-1,2′-naphthalen]-1′-yl)carbamate] was tested, and the IC50 [1] was 0.0148 µM and the IC50 (GM1 production) was 0.073 µM.

In the case of `O=C(NC1c2ccc(-c3ccc(F)cc3)cc2CCC12CC2)O[C@@H]1CN2CCC1CC2` (stereo partly drawn) [Example 186, (S)-quinuclidin-3-yl (6′-(4-fluorophenyl)-3′,4′-dihydro-1′H-spiro[cyclopropane-1,2′-naphthalen]-1′-yl)carbamate], the IC50 [1] is reported as 0.0244 µM and the IC50 (GM1 production) is reported as 0.0798 µM.

Compound `O=C(NC1c2ccc(-c3ccc(Cl)cc3)cc2CCC12CC2)O[C@@H]1CN2CCC1CC2` (stereo partly drawn) [Example 187, (S)-quinuclidin-3-yl (6′-(4-chlorophenyl)-3′,4′-dihydro-1′H-spiro[cyclopropane-1,2′-naphthalen]-1′-yl)carbamate] has an IC50 [1] of 0.0139 µM and an IC50 (GM1 production) of 0.0355 µM.

For `O=C(NC1c2ccc(-c3ccc(C(F)(F)F)cc3)cc2CCC12CC2)O[C@@H]1CN2CCC1CC2` (stereo partly drawn) [Example 188, (S)-quinuclidin-3-yl (6′-(4-(trifluoromethyl)phenyl)-3′,4′-dihydro-1′H-spiro[cyclopropane-1,2′-naphthalen]-1′-yl)carbamate], the IC50 [1] was 0.0161 µM and the IC50 (GM1 production) was 0.0341 µM.

With `O=C(NC1c2ccc(-c3ccc(OC(F)(F)F)cc3)cc2CCC12CC2)O[C@@H]1CN2CCC1CC2` (stereo partly drawn) [Example 189, (S)-quinuclidin-3-yl (6′-(4-(trifluoromethoxy)phenyl)-3′,4′-dihydro-1′H-spiro[cyclopropane-1,2′-naphthalen]-1′-yl)carbamate] the IC50 [1] was 0.0189 µM and the IC50 (GM1 production) was 0.0251 µM.

`O=C(NC1c2ccc(-c3cccc(F)c3)cc2CCC12CC2)O[C@@H]1CN2CCC1CC2` (stereo partly drawn) [Example 190, (S)-quinuclidin-3-yl (6′-(3-fluorophenyl)-3′,4′-dihydro-1′H-spiro[cyclopropane-1,2′-naphthalen]-1′-yl)carbamate] was tested, and the IC50 [1] was 0.0119 µM and the IC50 (GM1 production) was 0.0199 µM.

For `O=C(NC1c2ccc(-c3cccc(Cl)c3)cc2CCC12CC2)O[C@@H]1CN2CCC1CC2` (stereo partly drawn) [Example 191, (S)-quinuclidin-3-yl (6′-(3-chlorophenyl)-3′,4′-dihydro-1′H-spiro[cyclopropane-1,2′-naphthalen]-1′-yl)carbamate], the IC50 [1] was 0.0099 µM and the IC50 (GM1 production) was 0.0144 µM.

`O=C(NC1c2ccc(-c3cccc(C(F)(F)F)c3)cc2CCC12CC2)O[C@@H]1CN2CCC1CC2` (stereo partly drawn) [Example 192, (S)-quinuclidin-3-yl (6′-(3-(trifluoromethyl)phenyl)-3′,4′-dihydro-1′H-spiro[cyclopropane-1,2′-naphthalen]-1′-yl)carbamate] gave an IC50 [1] of 0.0129 µM and an IC50 (GM1 production) of 0.014 µM.

For `O=C(NC1c2ccc(-c3cccc(OC(F)(F)F)c3)cc2CCC12CC2)O[C@@H]1CN2CCC1CC2` (stereo partly drawn) [Example 193, (S)-quinuclidin-3-yl (6′-(3-(trifluoromethoxy)phenyl)-3′,4′-dihydro-1′H-spiro[cyclopropane-1,2′-naphthalen]-1′-yl)carbamate], the IC50 [1] was 0.0209 µM and the IC50 (GM1 production) was 0.0216 µM.

Work on `COCCOc1ccc(-c2ccc3c(c2)CCC2(CC2)C3NC(=O)O[C@@H]2CN3CCC2CC3)cc1` (stereo partly drawn) [Example 194, (S)-quinuclidin-3-yl (6′-(4-(2-methoxyethoxy)phenyl)-3′,4′-dihydro-1′H-spiro[cyclopropane-1,2′-naphthalen]-1′-yl)carbamate] yielded an IC50 [1] of 0.00103 µM and an IC50 (GM1 production) of 0.00792 µM.

`COCCOc1cccc(-c2ccc3c(c2)CCC2(CC2)C3NC(=O)O[C@@H]2CN3CCC2CC3)c1` (stereo partly drawn) [Example 195, (S)-quinuclidin-3-yl (6′-(3-(2-methoxyethoxy)phenyl)-3′,4′-dihydro-1′H-spiro[cyclopropane-1,2′-naphthalen]-1′-yl)carbamate] was tested, and the IC50 [1] was 0.00539 µM and the IC50 (GM1 production) was 0.0233 µM.

Compound `COCCOc1ccccc1-c1ccc2c(c1)CCC1(CC1)C2NC(=O)O[C@@H]1CN2CCC1CC2` (stereo partly drawn) [Example 196, (S)-quinuclidin-3-yl (6′-(2-(2-methoxyethoxy)phenyl)-3′,4′-dihydro-1′H-spiro[cyclopropane-1,2′-naphthalen]-1′-yl)carbamate] has an IC50 [1] of 0.00602 µM and an IC50 (GM1 production) of 0.0252 µM.

With `COCOc1ccc(-c2ccc3c(c2)CCC2(CC2)C3NC(=O)O[C@@H]2CN3CCC2CC3)cc1` (stereo partly drawn) [Example 197, (S)-quinuclidin-3-yl (6′-(4-(methoxymethoxy)phenyl)-3′,4′-dihydro-1′H-spiro[cyclopropane-1,2′-naphthalen]-1′-yl)carbamate] the IC50 [1] was 0.00313 µM and the IC50 (GM1 production) was 0.0028 µM.

Compound `COCOc1cccc(-c2ccc3c(c2)CCC2(CC2)C3NC(=O)O[C@@H]2CN3CCC2CC3)c1` (stereo partly drawn) [Example 198, (S)-quinuclidin-3-yl (6′-(3-(methoxymethoxy)phenyl)-3′,4′-dihydro-1′H-spiro[cyclopropane-1,2′-naphthalen]-1′-yl)carbamate] has an IC50 [1] of 0.00517 µM and an IC50 (GM1 production) of 0.00868 µM.

`COCOc1ccccc1-c1ccc2c(c1)CCC1(CC1)C2NC(=O)O[C@@H]1CN2CCC1CC2` (stereo partly drawn) [Example 199, (S)-quinuclidin-3-yl (6′-(2-(methoxymethoxy)phenyl)-3′,4′-dihydro-1′H-spiro[cyclopropane-1,2′-naphthalen]-1′-yl)carbamate] showed an IC50 [1] of 0.00724 µM and an IC50 (GM1 production) of 0.00763 µM.

For `COc1ccc(-c2ccc3c(c2)CCC2(CC2)C3NC(=O)O[C@@H]2CN3CCC2CC3)c(Cl)c1` (stereo partly drawn) [Example 200, (S)-quinuclidin-3-yl (6′-(2-chloro-4-methoxyphenyl)-3′,4′-dihydro-1′H-spiro[cyclopropane-1,2′-naphthalen]-1′-yl)carbamate], the IC50 [1] was 0.00885 µM and the IC50 (GM1 production) was 0.046 µM.

In the case of `COc1cc(-c2ccc3c(c2)CCC2(CC2)C3NC(=O)O[C@@H]2CN3CCC2CC3)ccc1Cl` (stereo partly drawn) [Example 201, (S)-quinuclidin-3-yl (6′-(4-chloro-3-methoxyphenyl)-3′,4′-dihydro-1′H-spiro[cyclopropane-1,2′-naphthalen]-1′-yl)carbamate], the IC50 [1] is reported as 0.0335 µM and the IC50 (GM1 production) is reported as 0.111 µM.

For `COc1ccc(-c2ccc3c(c2)CCC2(CC2)C3NC(=O)O[C@@H]2CN3CCC2CC3)cc1F` (stereo partly drawn) [Example 202, (S)-quinuclidin-3-yl (6′-(3-fluoro-4-methoxyphenyl)-3′,4′-dihydro-1′H-spiro[cyclopropane-1,2′-naphthalen]-1′-yl)carbamate], the IC50 [1] was 0.00116 µM and the IC50 (GM1 production) was 0.0244 µM.

`CCc1cccc(-c2ccc3c(c2)CCC2(CC2)C3NC(=O)O[C@@H]2CN3CCC2CC3)c1` (stereo partly drawn) [Example 203, (S)-quinuclidin-3-yl (6′-(3-ethylphenyl)-3′,4′-dihydro-1′H-spiro[cyclopropane-1,2′-naphthalen]-1′-yl)carbamate] showed an IC50 [1] of 0.0135 µM and an IC50 (GM1 production) of 0.035 µM.

In the case of `CC(C)(C)c1cccc(-c2ccc3c(c2)CCC2(CC2)C3NC(=O)O[C@@H]2CN3CCC2CC3)c1` (stereo partly drawn) [Example 204, (S)-quinuclidin-3-yl (6′-(3-(tert-butyl)phenyl)-3′,4′-dihydro-1′H-spiro[cyclopropane-1,2′-naphthalen]-1′-yl)carbamate], the IC50 [1] is reported as 0.0384 µM and the IC50 (GM1 production) is reported as 0.0929 µM.

With `CC(C)c1cccc(-c2ccc3c(c2)CCC2(CC2)C3NC(=O)O[C@@H]2CN3CCC2CC3)c1` (stereo partly drawn) [Example 205, (S)-quinuclidin-3-yl (6′-(3-isopropylphenyl)-3′,4′-dihydro-1′H-spiro[cyclopropane-1,2′-naphthalen]-1′-yl)carbamate] the IC50 [1] was 0.0342 µM and the IC50 (GM1 production) was 0.0443 µM.
